Measurements from ChEMBL document CHEMBL1201862, “PubChem BioAssay data set” (2004).
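Method: 48-hour compound exposure of cells in 96-well plates, five concentrations, linear interpolation of endpoints. The concentration for 50% growth inhibition is given as GI50.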 The source made the active and inactive calls. No stated cut-off is given here; in the data, active = GI50 up to about 1.1 µM and inactive = higher.

Tests used:
Test in all cases: inhibition of tumour cell growth, NCI panel, 48 h
[1] = system: 786-0
[2] = system: A498
[3] = system: A549
[4] = system: ACHN
[5] = system: BT-549
[6] = system: CAKI-1
[7] = system: CCRF-CEM
[8] = system: EKVX
[9] = system: HCC 2998
[10] = system: HCT-15
[11] = system: HL-60
[12] = system: HOP-92
[13] = system: HT-29
[14] = system: Hs-578T
[15] = system: IGROV-1
[16] = system: K562
[17] = system: KM12
[18] = system: LOX IMVI
[19] = system: M14
[20] = system: MCF7
[21] = system: MOLT-4
[22] = system: NCI-H226
[23] = system: NCI-H23
[24] = system: NCI-H460
[25] = system: NCI/ADR-RES
[26] = system: OVCAR-3
[27] = system: OVCAR-4
[28] = system: OVCAR-5
[29] = system: OVCAR-8
[30] = system: PC-3
[31] = system: RPMI-8226
[32] = system: RXF 393
[33] = system: SF-268
[34] = system: SF-539
[35] = system: SK-MEL-28
[36] = system: SK-MEL-5
[37] = system: SK-OV-3
[38] = system: SN12C
[39] = system: SNB-19
[40] = system: SNB-75
[41] = system: SR
[42] = system: SW-620
[43] = system: TK-10
[44] = system: U-251
[45] = system: UACC-62
[46] = system: UO-31
[47] = system: COLO 205
[48] = system: DU-145
[49] = system: HCT-116
[50] = system: HOP-62
[51] = system: MDA-MB-231
[52] = system: MDA-MB-435
[53] = system: MDA-N
[54] = system: NCI-H522
[55] = system: SF-295
[56] = system: SK-MEL-2
[57] = system: T47D
[58] = system: UACC-257
[59] = system: Malme-3M

Measured: GI50

CCNCCNC(=O)c1ccc(I)cc1
inactive: [1] > 100 µM | [2] > 100 µM | [3] > 100 µM | [4] > 100 µM | [5] > 100 µM | [6] > 100 µM | [7] > 100 µM | [8] > 100 µM | [9] > 100 µM | [11] > 100 µM | [12] 99.8 µM | [13] > 100 µM | [14] 81.8 µM | [15] > 100 µM | [16] > 100 µM | [17] > 100 µM | [18] > 100 µM | [19] > 100 µM | [20] > 100 µM | [21] > 100 µM | [22] 6.22 µM | [23] > 100 µM | [24] > 100 µM | [25] > 100 µM | [26] > 100 µM | [27] > 100 µM | [28] > 100 µM | [29] > 100 µM | [30] > 100 µM | [31] > 100 µM | [32] > 100 µM | [33] > 100 µM | [34] > 100 µM | [35] > 100 µM | [36] > 100 µM | [37] > 100 µM | [38] > 100 µM | [39] > 100 µM | [40] 34.4 µM | [41] > 100 µM | [42] > 100 µM | [43] > 100 µM | [44] > 100 µM | [45] > 100 µM | [46] 58.6 µM
> 100 µM: [10]

C=C[C@H]1CC[C@H]2[C@@H]3CC=C4C[C@@H](OC5OCC(O)C(O)C5O)CC[C@]4(C)[C@H]3CC[C@]12C (some centres undefined)
25.5 µM: [10]
inactive: [1] 15.3 µM | [2] 4.22 µM | [3] 12.9 µM | [4] 2.83 µM | [6] 6.62 µM | [7] 24.8 µM | [47] 21.7 µM | [48] 34.1 µM | [49] 13.7 µM | [11] 29.7 µM | [50] 18 µM | [12] 1.97 µM | [13] 24.4 µM | [14] 17.1 µM | [15] 10 µM | [16] 25.8 µM | [17] 12.9 µM | [18] 10.8 µM | [19] 16.1 µM | [20] 36.8 µM | [51] 11.4 µM | [52] 15.9 µM | [53] 17.6 µM | [21] 46.6 µM | [22] 15.5 µM | [23] 26.1 µM | [24] 13.1 µM | [54] 11.4 µM | [25] 15.9 µM | [26] 11.9 µM | [28] 11.7 µM | [29] 16.3 µM | [30] 14.3 µM | [31] 81.7 µM | [33] 13.8 µM | [55] 15.2 µM | [34] 14.9 µM | [56] 16.6 µM | [36] 18.2 µM | [37] 12.9 µM | [38] 15.7 µM | [39] 25.7 µM | [41] 14.7 µM | [42] 17.7 µM | [57] 14.3 µM | [44] 14.9 µM | [58] 82.8 µM | [45] 15.5 µM | [46] 13.3 µM

C/C=C1\NC(=O)[C@H](Cc2ccccc2)NC(=O)[C@@H](C(C)C)NC(=O)[C@@H]([C@@H](C)CC)NC(=O)[C@H](NC(=O)[C@H](NC(=O)[C@H](CCCN)NC(=O)[C@H]2CCCN2C(=O)[C@H](NC(=O)[C@@H](NC(=O)[C@@H](NC(=O)[C@H](NC(=O)CCCC(C)C)C(C)C)[C@@H](C)O)C(C)C)C(C)C)[C@@H](C)CC)[C@@H](C)OC(=O)[C@H](C(C)C)NC1=O
active: [8] 0.265 µM | [20] 0.461 µM | [27] 0.863 µM | [36] 0.456 µM | [39] 0.347 µM | [42] 0.344 µM | [44] 0.344 µM
inactive: [1] 1.74 µM | [5] 3.44 µM | [7] 2.86 µM | [11] 39.4 µM | [50] 1.76 µM | [15] 1.44 µM | [16] 3.59 µM | [18] 3.64 µM | [19] 1.38 µM | [52] 1.14 µM | [21] 12.1 µM | [59] 2 µM | [22] 2.23 µM | [23] 4.2 µM | [24] 1.52 µM | [54] 3.71 µM | [25] 3.04 µM | [26] 1.36 µM | [28] 1.63 µM | [29] 4.63 µM | [32] 3.1 µM | [33] 1.42 µM | [55] 1.69 µM | [34] 1.69 µM | [35] 1.5 µM | [56] 2.31 µM | [38] 2.64 µM | [41] 14.4 µM | [43] 1.85 µM | [45] 1.42 µM | [46] 2.1 µM
